Measured values as given in US20180071354A1, “SELECTIVE BREEDING METHOD OF ANTITUMOR/ANTICANCER CAMELLIA SINENSIS STRAIN, AND TEA PRODUCT OF SUCH STRAIN” (FUJIAN AGRICULTURE AND FORESTRY UNIVERSITY, priority 2015, published 2018).

Tests used:
[1] = system: HepG2 cells (human liver cancer cells) transplanted tumor; assay: In vivo antitumor testing, first experiment (Animal Model 1); design: species or system BALB/c nude mice; conditions: 35 days, 5-fluorouracil 15.0 mg/kg per day intra-abdominal injection, Tea Product 1 0.6 mL of 10% per day intragastric gavage
Description: The establishment of Animal Model 1 is addressed as follows. […] SCXK (Hu) 2012-0002) were purchased from Shanghai Silaike Experiment Animal Co., Ltd and were acclimatized for one week. HepG2 cells (human liver cancer cells) mentioned in section C of Example 3 were cultivated in the corresponding complete medium (see Table 3) supplemented with 100 μg/mL penicillin and 100 μg/mL streptomycin in an incubator (37° C., 100% relative humidity, 5% CO2). When adherent cancer/tumor cells reached 97% confluence, the medium was removed. Cell detachment was conducted using trypsin, and the detached cells were transferred to a centrifuge tube. Centrifugation was conducted, and the resulting supernatant was removed. Staining was performed with a 0.4% trypan blue, and it was determined that the cell viability was higher than 97%. A cell suspension having a concentration of […] was prepared using PBS. 0.2 mL of the cell suspension was subcutaneously injected into each of the nude mice at a position posterior to the axilla. […] Tea Product 1 and Conventional Tea Product obtained in section A of Example 3, as well as 5-fluorouracil mentioned in section B of Example 3, were examined for their in vivo antitumor activity. […] In all the three experiments above, each of the nude mice was sacrificed 24 hours after the termination of the treatment. The tumor was collected and weighed. The antitumor effect of a respective test substance was evaluated by virtue of the percent tumor growth inhibition (%), which was calculated using the following Equation II: E=[(F−G)/(F)]×100% (I) • E=percent tumor growth inhibition (%) • F=tumor weight of control group • G=tumor weight of respective test substance group The experimental data are expressed as mean±SEM (standard error of the mean). The experimental data were subjected to one-way analysis of variance (ANOVA) using SPSS (Statistical Package for Social Sciences) software package version 11.5, such that the difference between the groups could be evaluated. The data regarding the tumor weights of the groups were subjected to t-test. […]

[2] = system: human prostate cancer cell line PC-3; assay: In vitro antitumor/anticancer testing (CCK-8), PC-3; type: cell-based; conditions: 48 h
Description: Each of Tea Product 1 and Conventional Tea Product obtained in section A of this example was used to prepare test tea samples according to the method described below. A proper amount of the respective tea product was added into sterile water to prepare a stock solution with a concentration of 100 mg/mL, followed by using a membrane filter with a pore size of 0.22 μm to conduct vacuum filtration and sterilization. The resulting stock solution was diluted with a respective complete medium shown in Table 3 below to form test tea samples with different concentrations. In other words, the thus obtained test tea samples to be used for treating a respective cancer/tumor cell line shown in Table 3 were prepared using the same complete medium as that for the respective cancer/tumor cell line.
Specifically, each of the aforesaid commercially available agents was subjected to the method described below to prepare comparative test samples. A proper amount of a respective commercially available agent was dissolved in phosphate-buffered saline (PBS) to prepare a stock solution with a concentration of 5 mg/mL, followed by using a membrane filter with a pore size of 0.22 μm to conduct vacuum filtration and sterilization. The resulting stock solution was diluted with a respective complete medium shown in Table 3 below to form comparative test samples with different concentrations. To be specific, the comparative test samples prepared from the respective commercially available agent have the concentrations shown in Table 2 below. The thus obtained comparative test samples to be used for treating a respective cancer/tumor cell line shown in Table 3 were prepared using the same complete medium as that for the respective cancer/tumor cell line.
The following cancer/tumor cells purchased from Chinese Academy of Sciences, Shanghai Institutes for Biological Sciences, Institute of Biochemistry and Cell Biology were used for in vitro antitumor/anticancer testing: human liver cancer cell line HepG2, human ovarian cancer cell line SK-OV-3, human cervical cancer cell line Hela, human lung cancer cell line A549, human glioblastoma cell line U-87MG, human mammary gland/duct cancer cell line BT-474, human prostate cancer cell line PC-3, human leukemia cell line HL-60, human gastric cancer cell line SMMC-7721, human colon cancer cell line HCT-116, human squamous cell carcinoma cell line A431, human leukemia cell line K562, human pancreatic cancer cell line PANC-1, and human gastric cancer cell line BGC-823.
The cultivation of each cancer/tumor cell line is described as follows. The cancer/tumor cancer cells were cultivated in the respective complete medium supplemented with 100 μg/mL penicillin and 100 μg/mL streptomycin in an incubator (37° C., 100% relative humidity, 5% CO2). When adherent cancer/tumor cells reached 80% confluence during the log-phase, cell detachment was conducted using 0.6 mL of 0.3% trypsin. Afterwards, a cell suspension having a cell density of 1.0×10^4 cells/mL was prepared. 100 μL of the cell suspension (i.e. 1000 cancer/tumor cells) was added into wells of a 96-well plate (Cat. No. 3599, Corning Costar), followed by cultivation in an incubator (37° C., 100% relative humidity, 5% CO2) for 24 hours.
As experimental groups, the tumor/cancer cells of each cell line were treated with the test tea samples prepared from one or more of the tea products and the comparative test samples prepared from one or more of the commercially available agents as obtained in section B of this example (for more detailed information about the tea product(s) and the commercially available product (s) used to treat each cell line, please see Table 4 below). To be specific, 6 to 10 test tea samples prepared from the same tea product and having different concentrations, as well as 6 to 10 comparative test samples prepared from the same commercially available agent and having different concentrations, were utilized to treat the tumor/cancer cells of each cell line. […]

Structure (SMILES) | Body weight After treatment [1] | Percent tumor growth inhibition [1] | Tumor weight [1] | Percent growth inhibition ([2]; 2.5 μg/mL) | Percent growth inhibition ([2]; 7 μg/mL) | Percent growth inhibition ([2]; 10 μg/mL) | Percent growth inhibition ([2]; 20 μg/mL) | Percent growth inhibition ([2]; 40 μg/mL) | Percent growth inhibition ([2]; 80 μg/mL) | Percent growth inhibition ([2]; 160 μg/mL) | Percent growth inhibition ([2]; 320 μg/mL) | Percent growth inhibition ([2]; 640 μg/mL) | IC50 ([2]; PC-3)
O=c1[nH]cc(F)c(=O)[nH]1 [5-fluorouracil] | 72.90 g | 80.84% | 0.08 g | – | – | – | – | – | – | – | – | – | –
O=C(O[C@@H]1Cc2c(O)cc(O)cc2O[C@@H]1c1cc(O)c(O)c(O)c1)c1cc(O)c(O)c(O)c1 [EGCG monomer, epigallocatechin gallate] | – | – | – | 16.69% | 19.10% | 19.64% | 26.03% | 40.11% | 74.43% | 86.71% | 96.31% | 92.53% | IC50 (μg/mL) = 39.51
